From PubChem BioAssay AID1259407 (Chemical Carcinogenesis Research Information System (CCRIS), 2018)
The source made the active and inactive calls. No rule for the calls is given here.

System: CCRIS mutagenicity, Ames/micronucleus/aberration tests
Experiment: CCRIS mutagenicity studies
[1] = Test System: AMES SALMONELLA TYPHIMURIUM, Strain/Indicator: TA100, Metabolic Activation: HAMSTER, LIVER, S-9, AROCLOR 1254 (10%), Method: PREINCUBATION
[2] = Test System: AMES SALMONELLA TYPHIMURIUM, Strain/Indicator: TA100, Metabolic Activation: NONE, Method: PREINCUBATION
[3] = Test System: AMES SALMONELLA TYPHIMURIUM, Strain/Indicator: TA100, Metabolic Activation: RAT, LIVER, S-9, AROCLOR 1254 (10%), Method: PREINCUBATION
[4] = Test System: AMES SALMONELLA TYPHIMURIUM, Strain/Indicator: TA1535, Metabolic Activation: HAMSTER, LIVER, S-9, AROCLOR 1254 (10%), Method: PREINCUBATION
[5] = Test System: AMES SALMONELLA TYPHIMURIUM, Strain/Indicator: TA1535, Metabolic Activation: NONE, Method: PREINCUBATION
[6] = Test System: AMES SALMONELLA TYPHIMURIUM, Strain/Indicator: TA1535, Metabolic Activation: RAT, LIVER, S-9, AROCLOR 1254 (10%), Method: PREINCUBATION
[7] = Test System: AMES SALMONELLA TYPHIMURIUM, Strain/Indicator: TA100, Metabolic Activation: NONE, Method: STANDARD PLATE
[8] = Test System: AMES SALMONELLA TYPHIMURIUM, Strain/Indicator: TA98, Metabolic Activation: NONE, Method: PREINCUBATION
[9] = Test System: AMES SALMONELLA TYPHIMURIUM, Strain/Indicator: TA98, Metabolic Activation: RAT, LIVER, S-9, PCB, Method: PREINCUBATION
[10] = Test System: AMES SALMONELLA TYPHIMURIUM, Strain/Indicator: TA100, Metabolic Activation: RAT, LIVER, S-9, PCB, Method: PREINCUBATION
[11] = Test System: AMES SALMONELLA TYPHIMURIUM, Strain/Indicator: TA98, Metabolic Activation: HAMSTER, LIVER, S-9, AROCLOR 1254 (30%), Method: PREINCUBATION
[12] = Test System: AMES SALMONELLA TYPHIMURIUM, Strain/Indicator: TA98, Metabolic Activation: RAT, LIVER, S-9, AROCLOR 1254 (30%), Method: PREINCUBATION
[13] = Test System: AMES SALMONELLA TYPHIMURIUM, Strain/Indicator: TA100, Metabolic Activation: HAMSTER, LIVER, S-9, AROCLOR 1254 (30%), Method: PREINCUBATION
[14] = Test System: AMES SALMONELLA TYPHIMURIUM, Strain/Indicator: TA100, Metabolic Activation: RAT, LIVER, S-9, AROCLOR 1254 (30%), Method: PREINCUBATION

## C=CC(=O)OCC1CO1 (stereo not given)
[1]
  mutagenic call: active; positive
[2]
  mutagenic call: active; positive
[3]
  mutagenic call: active; positive
[4]
  mutagenic call: active; positive
[5]
  mutagenic call: active; positive
[6]
  mutagenic call: active; positive

## Cc1cc(C)c2c(ccc3ccccc32)c1
Test System: AMES SALMONELLA TYPHIMURIUM, Strain/Indicator: TA98, Metabolic Activation: NONE, Method: STANDARD PLATE
  mutagenic call: inactive; negative
Test System: AMES SALMONELLA TYPHIMURIUM, Strain/Indicator: TA98, Metabolic Activation: RAT, LIVER, S-9, AROCLOR 1254, Method: STANDARD PLATE
  mutagenic call: inactive; negative
[7]
  mutagenic call: inactive; negative
Test System: AMES SALMONELLA TYPHIMURIUM, Strain/Indicator: TA100, Metabolic Activation: RAT, LIVER, S-9, AROCLOR 1254, Method: STANDARD PLATE
  mutagenic call: active; positive

## COc1cc2c(c(OC)c1CO)C(=O)c1ccccc1C2=O
[8]
  mutagenic call: inactive; negative
[9]
  mutagenic call: inactive; negative
[2]
  mutagenic call: inactive; negative
[10]
  mutagenic call: inactive; negative

## c1ccc2c(c1)Oc1ccccc1O2
Test System: AMES SALMONELLA TYPHIMURIUM, Strain/Indicator: TA98(1,8-DNP6), Metabolic Activation: RAT, LIVER, S-9, PCB, Method: SUSPENSION
  mutagenic call: inactive; negative
Test System: AMES SALMONELLA TYPHIMURIUM, Strain/Indicator: TA98(NR), Metabolic Activation: RAT, LIVER, S-9, PCB, Method: SUSPENSION
  mutagenic call: inactive; negative
Test System: AMES SALMONELLA TYPHIMURIUM, Strain/Indicator: TA98, Metabolic Activation: NONE, Method: SUSPENSION
  mutagenic call: inactive; negative
Test System: AMES SALMONELLA TYPHIMURIUM, Strain/Indicator: TA98, Metabolic Activation: RAT, LIVER, S-9, PCB, Method: SUSPENSION
  mutagenic call: inactive; negative
Test System: AMES SALMONELLA TYPHIMURIUM, Strain/Indicator: TA100, Metabolic Activation: NONE, Method: SUSPENSION
  mutagenic call: inactive; negative
Test System: AMES SALMONELLA TYPHIMURIUM, Strain/Indicator: TA100, Metabolic Activation: RAT, LIVER, S-9, PCB, Method: SUSPENSION
  mutagenic call: inactive; negative

## CC(=O)Nc1ccc(N/N=C2/C(=O)c3ccc(NC(=O)Nc4ccc5c(c4)C=C(S(=O)(=O)O)/C(=N/Nc4ccccc4)C5=O)cc3C=C2S(=O)(=O)O)cc1
Test System: Ames Salmonella typhimurium, Strain/Indicator: TA98, Metabolic Activation: None, Method: Preincubation
  mutagenic call: active; positive

## O=c1[nH][nH]c(=O)c2cc([N+](=O)[O-])ccc12
[11]
  mutagenic call: active; positive
[8]
  mutagenic call: active; positive
[12]
  mutagenic call: active; positive
[13]
  mutagenic call: active; positive
[2]
  mutagenic call: active; positive
[14]
  mutagenic call: inactive; negative

## CCCCC(CC)CN (stereo not given)
Test System: AMES SALMONELLA TYPHIMURIUM, Strain/Indicator: TA97, Metabolic Activation: HAMSTER, LIVER, S-9, AROCLOR 1254 (10%), Method: PREINCUBATION
  mutagenic call: inactive; negative
Test System: AMES SALMONELLA TYPHIMURIUM, Strain/Indicator: TA97, Metabolic Activation: HAMSTER, LIVER, S-9, AROCLOR 1254 (30%), Method: PREINCUBATION
  mutagenic call: inactive; negative
Test System: AMES SALMONELLA TYPHIMURIUM, Strain/Indicator: TA97, Metabolic Activation: NONE, Method: PREINCUBATION
  mutagenic call: inactive; negative
Test System: AMES SALMONELLA TYPHIMURIUM, Strain/Indicator: TA97, Metabolic Activation: RAT, LIVER, S-9, AROCLOR 1254 (10%), Method: PREINCUBATION
  mutagenic call: inactive; negative
Test System: AMES SALMONELLA TYPHIMURIUM, Strain/Indicator: TA97, Metabolic Activation: RAT, LIVER, S-9, AROCLOR 1254 (30%), Method: PREINCUBATION
  mutagenic call: inactive; negative
Test System: AMES SALMONELLA TYPHIMURIUM, Strain/Indicator: TA98, Metabolic Activation: HAMSTER, LIVER, S-9, AROCLOR 1254 (10%), Method: PREINCUBATION
  mutagenic call: inactive; negative
[11]
  mutagenic call: inactive; negative
[8]
  mutagenic call: inactive; negative
Test System: AMES SALMONELLA TYPHIMURIUM, Strain/Indicator: TA98, Metabolic Activation: RAT, LIVER, S-9, AROCLOR 1254 (10%), Method: PREINCUBATION
  mutagenic call: inactive; negative
[12]
  mutagenic call: inactive; negative
[1]
  mutagenic call: inactive; negative
[13]
  mutagenic call: inactive; negative
[2]
  mutagenic call: inactive; negative
[3]
  mutagenic call: inactive; negative
[14]
  mutagenic call: inactive; negative
[4]
  mutagenic call: inactive; negative
Test System: AMES SALMONELLA TYPHIMURIUM, Strain/Indicator: TA1535, Metabolic Activation: HAMSTER, LIVER, S-9, AROCLOR 1254 (30%), Method: PREINCUBATION
  mutagenic call: inactive; negative
[5]
  mutagenic call: inactive; negative
[6]
  mutagenic call: inactive; negative
Test System: AMES SALMONELLA TYPHIMURIUM, Strain/Indicator: TA1535, Metabolic Activation: RAT, LIVER, S-9, AROCLOR 1254 (30%), Method: PREINCUBATION
  mutagenic call: inactive; negative

## C=C(C)C(=O)OCCOC1C=CC2C3CCC(C3)C12 (stereo not given)
Test System: CHINESE HAMSTER OVARY, Strain/Indicator: CHO-K1-BH4 (HGPRT), Metabolic Activation: NONE, Method: MONOLAYER
  mutagenic call: inactive; negative
Test System: CHINESE HAMSTER OVARY, Strain/Indicator: CHO-K1-BH4 (HGPRT), Metabolic Activation: NONE, Method: SUSPENSION/PLATE
  mutagenic call: active; positive

## COc1nncc2cnccc12
[8]
  mutagenic call: inactive; negative
[9]
  mutagenic call: inactive; negative
[2]
  mutagenic call: inactive; negative
[10]
  mutagenic call: inactive; negative

## O[C@H]1C=Cc2ncccc2[C@@H]1O
[7]
  mutagenic call: inactive; negative
Test System: AMES SALMONELLA TYPHIMURIUM, Strain/Indicator: TA100, Metabolic Activation: RAT, LIVER, S-9, AROCLOR 1254 (10 OR 20%), Method: STANDARD PLATE
  mutagenic call: inactive; negative

## Cc1cc(N=Nc2ccccc2C)c(N)cc1N
Test System: AMES SALMONELLA TYPHIMURIUM, Strain/Indicator: TA100, Metabolic Activation: HUMAN, LIVER, S-9, Method: PREINCUBATION
  mutagenic call: inactive; negative
Test System: AMES SALMONELLA TYPHIMURIUM, Strain/Indicator: TA100, Metabolic Activation: RAT, LIVER, S-9, BETA-NAPHTHOFLAVONE, Method: PREINCUBATION
  mutagenic call: active; positive
Test System: AMES SALMONELLA TYPHIMURIUM, Strain/Indicator: TA100, Metabolic Activation: RAT, LIVER, S-9, PHENOBARBITAL, Method: PREINCUBATION
  mutagenic call: active; positive
Test System: AMES SALMONELLA TYPHIMURIUM, Strain/Indicator: TA100, Metabolic Activation: RAT, LIVER, S-9, Method: PREINCUBATION
  mutagenic call: active; positive
Test System: UDS RODENT HEPATOCYTES, Strain/Indicator: THY INCORP, Metabolic Activation: NONE, Method: AUTORADIOGRAPHY
  mutagenic call: active; positive
